{
  "source": "paper PMC4230943",
  "about": "“Mimicking Hypoxia to Treat Anemia: HIF-Stabilizer BAY 85-3934 (Molidustat) Stimulates Erythropoietin Production without Hypertensive Effects” (PLoS ONE, 2014)",
  "key": {"[1]": {"test_system": "male Wistar rats", "assay": "Single oral dose: plasma EPO and reticulocytes in healthy rats", "assay_type": "in vivo, rat", "description": "Male Wistar rats (240–340 g in body weight) were housed with five animals per cage for at least 1 week before experimentation. Blood samples from rats were collected under anesthesia (2% isoflurane in air) by puncturing the retro-orbital vein plexus with a glass capillary. […] The number of reticulocytes in 5 µl blood was counted after staining with thiazol orange (Becton Dickinson) according to the manufacturer’s instructions by FACS analysis on a BD FACSCalibur system (Becton Dickinson). […] The time-course of induction of EPO mRNA expression and plasma EPO was determined at baseline and 0.5 h, 1 h, 2 h, 4 h, 6 h, and 8 h after oral administration of a single dose of BAY 85-3934 (5 mg/kg). EPO was measured in plasma samples taken from rodents using a commercial ELISA kit (R&D Systems), according to the manufacturer’s instructions. Relative plasma EPO levels were given in picograms per milliliter. […] Experiments were conducted in male Wistar rats to assess the threshold doses for EPO induction and the erythropoietic activity of BAY 85-3934."}, "[2]": {"test_system": "A549 cells stably transfected with the HIF-RE2-luc HIF reporter construct", "assay": "Luciferase reporter assay in A549 HIF-RE2 reporter cells", "assay_type": "cell-based, human", "protocol": "A549 and HeLa carcinoma cell lines (American Type Culture Collection) were cultured in DMEM/F-12 (Gibco), and Hep3B cells in RPMI medium, both supplemented with antibiotics, L-glutamine and 10% fetal calf serum. A549 cells stably transfected with the HIF-RE2-luc HIF reporter construct (constructed in pGL3, Promega GmbH) were seeded on 384-well plates (Greiner) at a density of 2500 cells/well in a volume of 25 µl complete cell culture medium, and re-incubated for 16–24 h before the test. Test compounds were added at appropriate dilutions in a volume of 10 µl, and cells were re-incubated for 6 h before measurement. Luciferase activity was determined in a luminometer after addition of cell lysis/luciferase buffer. Cell line identities were verified by STR DNA typing (DSMZ GmbH).\nAs in the enzymatic assay, and in contrast to experiments with iron-chelating agents (data not shown), luciferase activity was not altered by a high concentration of Fe^2+ (50 µM) in the culture medium (Fig. 1G). The high IC50 value observed corresponds well to the low sensitivity of A549 cells shown by western blot analysis."}, "[3]": {"biological_target": "T1, PHD3 (Homo sapiens, UniProt Q9H6Z9)", "T1 construct": "made in house; host or cells: Sf9 insect cells (baculovirus, pBacPAC transfer vectors)", "T1 sequence (Q9H6Z9 whole entry)": "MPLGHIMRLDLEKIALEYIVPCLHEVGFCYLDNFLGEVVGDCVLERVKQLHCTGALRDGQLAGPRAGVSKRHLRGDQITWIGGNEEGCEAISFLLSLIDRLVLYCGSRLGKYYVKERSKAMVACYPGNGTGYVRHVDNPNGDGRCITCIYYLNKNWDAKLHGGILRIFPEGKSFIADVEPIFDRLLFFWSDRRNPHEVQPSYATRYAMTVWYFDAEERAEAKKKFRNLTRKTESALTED", "assay": "Prolyl hydroxylase assay (Eu-VBC binding to hydroxylated HIF-1α 556–574 peptide)", "assay_type": "biochemical", "details": "20 µM 2-oxoglutarate, 10 µM Fe2+, 2 mM ascorbate", "protocol": "(§1) Recombinant human HIF-PHs were purified from Sf9 insect cell lysates. After infection with the recombinant virus stocks, generated via cloning of the respective cDNAs into pBacPAC transfer vectors (Clontech Laboratories), Sf9 cells were incubated for 48 h at 27°C with continuous shaking. Expression of the recombinant protein was confirmed by SDS-PAGE and western blot analysis of the expressed proteins. The lysate was centrifuged at 75,000 g at 4°C for 30 min and the supernatant containing the soluble HIF-PHs was incubated for 1 h at 2–8°C with CM Sepharose. After several wash steps, bound proteins were eluted from Sepharose using a linear NaCl gradient. […]\n(§2) Hydroxylated biotinyl-HIF-1α 556–574 was incubated with Eu-VBC in 100 µl binding buffer (50 mM Tris [pH 7.5], 120 mM NaCl) for 60 min at room temperature. After washing six times with DELFIA wash buffer (PerkinElmer) and adding 100 µl enhancer solution (PerkinElmer), the amount of bound VBC was determined by measuring time-resolved fluorescence with a Tecan infinite M200 plate reader. Measurements were taken in triplicate or more, and results were expressed as means ± SEM. IC50 values were determined after curve fitting using GraphPad Prism software (GraphPad Software, La Jolla, CA, USA) applying the four-parameter logistic equation to the data sets. […]"}, "[4]": {"biological_target": "T2, PHD1 (Homo sapiens, UniProt Q96KS0)", "T2 construct": "made in house; host or cells: Sf9 insect cells (baculovirus, pBacPAC transfer vectors)", "T2 sequence (Q96KS0 whole entry)": "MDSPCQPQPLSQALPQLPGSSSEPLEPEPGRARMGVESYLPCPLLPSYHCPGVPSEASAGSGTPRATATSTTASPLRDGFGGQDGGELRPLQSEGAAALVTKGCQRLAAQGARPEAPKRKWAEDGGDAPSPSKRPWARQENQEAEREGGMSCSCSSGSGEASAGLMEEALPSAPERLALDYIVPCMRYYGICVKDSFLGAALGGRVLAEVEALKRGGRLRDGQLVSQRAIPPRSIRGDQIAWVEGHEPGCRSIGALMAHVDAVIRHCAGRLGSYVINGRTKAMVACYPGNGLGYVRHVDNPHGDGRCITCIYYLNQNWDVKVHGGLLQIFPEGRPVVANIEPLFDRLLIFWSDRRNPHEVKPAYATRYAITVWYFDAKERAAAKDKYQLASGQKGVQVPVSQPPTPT", "assay": "Prolyl hydroxylase assay (Eu-VBC binding to hydroxylated HIF-1α 556–574 peptide)", "assay_type": "biochemical", "details": "20 µM 2-oxoglutarate, 10 µM Fe2+, 2 mM ascorbate", "protocol": "as §1, §2"}, "[5]": {"biological_target": "T3, PHD2 (Homo sapiens, UniProt Q9GZT9)", "T3 construct": "made in house; host or cells: Sf9 insect cells (baculovirus, pBacPAC transfer vectors)", "T3 sequence (Q9GZT9 whole entry)": "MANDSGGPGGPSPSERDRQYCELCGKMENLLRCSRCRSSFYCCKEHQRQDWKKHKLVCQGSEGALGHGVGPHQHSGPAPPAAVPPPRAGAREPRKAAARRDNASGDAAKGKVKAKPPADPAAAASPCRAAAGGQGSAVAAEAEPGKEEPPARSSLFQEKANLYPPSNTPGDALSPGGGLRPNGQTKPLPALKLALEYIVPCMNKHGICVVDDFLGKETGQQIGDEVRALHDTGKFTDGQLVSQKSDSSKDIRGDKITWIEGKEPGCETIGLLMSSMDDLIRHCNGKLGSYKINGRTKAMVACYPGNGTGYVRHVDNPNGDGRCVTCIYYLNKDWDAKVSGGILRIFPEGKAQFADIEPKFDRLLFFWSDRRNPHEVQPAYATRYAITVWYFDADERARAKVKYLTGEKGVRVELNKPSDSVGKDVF", "assay": "Prolyl hydroxylase assay (Eu-VBC binding to hydroxylated HIF-1α 556–574 peptide)", "assay_type": "biochemical", "description": "DELFIA labeling reagent (PerkinElmer) was used to label purified VBC complex with europium according to the manufacturer’s instructions.\nThe prolyl hydroxylase assay was performed as described previously [32] with minor modifications. […] The immobilized peptide substrate was incubated with the appropriate amount of HIF-PH in buffer containing 20 mM Tris (pH 7.5), 5 mM KCl, 1.5 mM MgCl2, 20 µM 2-oxoglutarate, 10 µM FeSO4, 2 mM ascorbate, 4% protease inhibitors without EDTA (Roche Diagnostics) in a final volume of 100 µl, with or without test compound added at appropriate concentrations. The reaction time was 60 min. To stop the reaction, plates were washed three times with wash buffer.\nTo measure the activity of HIF-PH inhibitors quantitatively, a microplate assay was developed that employed the interaction of the VBC complex with the peptide HIF-1α 556–574 after being hydroxylated at proline 564 by recombinant HIF-PH. Activity of the recombinant enzyme was dependent on the concentrations of several cofactors, 2-oxoglutarate, Fe^2+, and ascorbate, in the reaction mixture."}},
  "data": [
    {"smiles": "O=c1c(-n2ccnn2)c[nH]n1-c1cc(N2CCOCC2)ncn1", "note": "[BAY 85-3934, 2-[6-(morpholin-4-yl)pyrimidin-4-yl]-4-(1H-1,2,3-triazol-1-yl)-1,2-dihydro-3H-pyrazol-3-one]", "values": [
      {"measurement": "time for which maximal plasma EPO concentrations were maintained", "setting": "[1]; doses of 500 mg/kg and above", "result": "over 48 h"},
      {"measurement": "doses giving maximal EPO induction", "setting": "[1]; single oral administration, data not shown", "result": "≥ 500", "unit": "mg/kg"},
      {"measurement": "doses giving statistically significant EPO induction", "setting": "[1]; single oral administration, plasma EPO at 4 h", "result": "≥ 1.25", "unit": "mg/kg"},
      {"measurement": "doses giving a dose-dependent increase in the proportion of reticulocytes", "setting": "[1]; single oral dose, 72 h", "result": "≥ 1.25", "unit": "mg/kg"},
      {"measurement": "luciferase activity at high Fe2+ in the culture medium", "setting": "[2]; Fe2+ 50 µM", "result": "not altered"},
      {"measurement": "EC50", "setting": "[2]; Homo sapiens, A549, 6 h incubation, n = 4, read-out: mean (± SD) EC50 of luciferase reporter induction", "result": "8400 ± 700", "unit": "nM"},
      {"measurement": "IC50", "setting": "[3]", "result": 450, "unit": "nM"},
      {"measurement": "IC50", "setting": "[4]", "result": 480, "unit": "nM"},
      {"measurement": "IC50", "setting": "[5]; 20 µM 2-oxoglutarate, 10 µM Fe2+, 2 mM ascorbate", "result": 280, "unit": "nM"},
      {"measurement": "increase of potency on lowering 2-oxoglutarate", "setting": "[5]; 2-oxoglutarate lowered from 20 µM to 0.3 µM (Fig. 1A)", "result": "up to 10 fold"},
      {"measurement": "alteration of potency on varying Fe2+ and ascorbate", "setting": "[5]; Fe2+ and ascorbate varied by factors of 30 and 200 (Fig. 1B, C)", "result": "≤ 2", "unit": "fold"}
    ]}
  ]
}
